Measurements published in PMC12504763, “Antiproliferation, 3D-multicellular spheroid and VEGFR-2 inhibitory properties of spiroindolin-2-ones with phosphonate function” (Scientific Reports, 2025).
Read-outs that look alike come from different tables or passages of the source.

Legend:
[1] = test system: HCT116 (colon) cancer cell line; test: 2D-monolayer antiproliferation (MTT) against HCT116; type: cell-based, human; settings: for IC50: Homo sapiens, HCT-116
[2] = test system: PaCa2 (pancreatic) cancer cell line; test: 2D-monolayer antiproliferation (MTT) against PaCa2; type: cell-based, human
[3] = test system: MCF7 (breast) cancer cell line; test: 2D-monolayer antiproliferation (MTT) against MCF7; type: cell-based, human
[4] = test system: A549 (lung) cancer cell line; test: 2D-monolayer antiproliferation (MTT) against A549; type: cell-based, human
[5] = test system: RPE1 (normal human immortalized retinal pigment epithelial cell line); test: cells; type: cell-based; settings: Homo sapiens, RPE-1; MTT, normal RPE1 cell; read-out: IC50, μM ± SEM RPE1
VEGFR-2 [6] = biological target: T1, VEGFR-2 (Homo sapiens, UniProt P35968); test: cell-based; type: cell-based
T1 construct: endogenous in cells; host or cells: HCT116, PaCa2, MCF7 (human cancer cell lines, ATCC origin)

VEGFR-2 [7] = biological target: T1, VEGFR-2; test: cell-based; type: cell-based; remark: listed apart in the source
VEGFR-2 [8] = biological target: T1, VEGFR-2; test: cell-based; type: cell-based; remark: listed apart in the source
COX-1 = biological target: T2, COX-1 (Ovis aries, UniProt P05979); test: biochemical; settings: 3 replicates, read-out: % Inhibition of COX-1 ± SEM
T2 construct: purchased BioVision incorporated USA K548–100
T2 sequence (P05979 25-600): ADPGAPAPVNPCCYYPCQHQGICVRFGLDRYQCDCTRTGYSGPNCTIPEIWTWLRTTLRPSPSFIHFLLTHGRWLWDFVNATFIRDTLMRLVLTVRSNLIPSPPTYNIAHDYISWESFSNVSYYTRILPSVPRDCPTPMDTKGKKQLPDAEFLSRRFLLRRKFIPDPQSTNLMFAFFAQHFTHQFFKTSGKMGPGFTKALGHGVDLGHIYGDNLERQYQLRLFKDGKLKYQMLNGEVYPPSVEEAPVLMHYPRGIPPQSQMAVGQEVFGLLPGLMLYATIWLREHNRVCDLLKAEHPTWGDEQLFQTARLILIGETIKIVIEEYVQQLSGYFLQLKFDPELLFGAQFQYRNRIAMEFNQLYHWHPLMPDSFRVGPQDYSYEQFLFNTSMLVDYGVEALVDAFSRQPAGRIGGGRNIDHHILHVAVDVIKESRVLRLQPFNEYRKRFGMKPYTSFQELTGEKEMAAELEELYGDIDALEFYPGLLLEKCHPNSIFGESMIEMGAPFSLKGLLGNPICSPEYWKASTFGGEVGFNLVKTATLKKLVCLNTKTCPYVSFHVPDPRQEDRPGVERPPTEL

COX-2 = biological target: T3, COX-2 (Homo sapiens, UniProt P35354); test: biochemical
T3 construct: purchased BioVision incorporated USA K548–100
T3 sequence (P35354 18-604): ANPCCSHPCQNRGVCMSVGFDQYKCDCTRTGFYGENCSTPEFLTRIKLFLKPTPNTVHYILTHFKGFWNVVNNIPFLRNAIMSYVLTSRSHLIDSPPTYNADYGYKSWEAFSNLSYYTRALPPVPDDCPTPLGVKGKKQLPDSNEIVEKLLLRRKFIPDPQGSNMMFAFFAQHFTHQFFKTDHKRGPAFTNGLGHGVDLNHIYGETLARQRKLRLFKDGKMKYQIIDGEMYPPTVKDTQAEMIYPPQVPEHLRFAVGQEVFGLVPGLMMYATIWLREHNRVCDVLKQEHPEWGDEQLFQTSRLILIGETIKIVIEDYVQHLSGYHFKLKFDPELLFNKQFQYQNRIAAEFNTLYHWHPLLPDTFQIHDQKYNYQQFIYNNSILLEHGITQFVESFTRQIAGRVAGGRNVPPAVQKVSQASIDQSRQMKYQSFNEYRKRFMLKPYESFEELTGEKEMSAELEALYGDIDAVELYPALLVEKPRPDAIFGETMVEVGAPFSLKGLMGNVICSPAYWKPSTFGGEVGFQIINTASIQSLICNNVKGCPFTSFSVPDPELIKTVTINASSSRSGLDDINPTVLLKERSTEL

TNF-α [9] = test: TNF-α inhibitory properties (ELISA), HCT116 cell lysate; type: cell-based, human; settings: at 10 μM; for TNF-α pg/mL (± SEM) HCT116: control 95.74 ± 0.5
TNF-α [10] = test: TNF-α inhibitory properties (ELISA), PaCa2 cell lysate; type: cell-based, human; settings: at 10 μM; for TNF-α pg/mL (± SEM) PaCa2: control 111.8 ± 2.0
TNF-α [11] = test: TNF-α inhibitory properties (ELISA), MCF7 cell lysate; type: cell-based, human; settings: at 10 μM; for TNF-α pg/mL (± SEM) MCF7: control 83.26 ± 1.1

T1 sequence (P35968 20-1356): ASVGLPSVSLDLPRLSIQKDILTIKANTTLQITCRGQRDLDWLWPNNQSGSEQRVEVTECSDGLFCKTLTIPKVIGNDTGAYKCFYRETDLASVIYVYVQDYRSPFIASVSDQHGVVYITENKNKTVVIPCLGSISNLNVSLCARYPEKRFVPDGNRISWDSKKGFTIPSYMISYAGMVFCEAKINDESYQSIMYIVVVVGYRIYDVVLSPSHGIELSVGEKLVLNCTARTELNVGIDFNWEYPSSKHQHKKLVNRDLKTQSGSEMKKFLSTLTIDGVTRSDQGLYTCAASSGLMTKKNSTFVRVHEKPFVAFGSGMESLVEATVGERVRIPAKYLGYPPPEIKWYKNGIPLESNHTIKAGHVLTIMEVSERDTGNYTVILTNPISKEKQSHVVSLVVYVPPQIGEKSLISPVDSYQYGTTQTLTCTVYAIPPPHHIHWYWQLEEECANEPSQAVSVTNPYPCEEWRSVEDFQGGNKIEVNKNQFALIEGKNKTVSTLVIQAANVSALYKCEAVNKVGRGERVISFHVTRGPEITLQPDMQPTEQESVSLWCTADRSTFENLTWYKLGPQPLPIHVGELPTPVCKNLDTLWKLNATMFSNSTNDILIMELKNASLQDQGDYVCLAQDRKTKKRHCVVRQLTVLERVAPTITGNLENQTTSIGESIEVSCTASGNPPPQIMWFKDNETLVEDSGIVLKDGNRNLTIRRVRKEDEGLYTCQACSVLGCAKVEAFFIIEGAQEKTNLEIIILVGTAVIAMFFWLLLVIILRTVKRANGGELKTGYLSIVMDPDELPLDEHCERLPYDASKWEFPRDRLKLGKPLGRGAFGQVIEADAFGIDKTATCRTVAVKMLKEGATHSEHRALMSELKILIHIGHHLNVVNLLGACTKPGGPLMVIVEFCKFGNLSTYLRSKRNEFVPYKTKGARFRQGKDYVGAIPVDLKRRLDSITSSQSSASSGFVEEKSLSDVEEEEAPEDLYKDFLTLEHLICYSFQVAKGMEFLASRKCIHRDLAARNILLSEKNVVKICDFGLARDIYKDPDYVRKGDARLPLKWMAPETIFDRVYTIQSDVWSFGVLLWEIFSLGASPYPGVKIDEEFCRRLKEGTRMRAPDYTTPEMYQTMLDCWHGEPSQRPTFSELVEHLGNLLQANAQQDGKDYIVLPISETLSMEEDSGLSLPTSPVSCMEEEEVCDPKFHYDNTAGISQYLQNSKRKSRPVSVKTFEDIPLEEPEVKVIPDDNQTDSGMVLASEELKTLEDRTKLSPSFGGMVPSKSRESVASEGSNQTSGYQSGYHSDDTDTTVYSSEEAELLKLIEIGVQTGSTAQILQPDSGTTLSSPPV

With `CCOP(=O)(OCC)N1C/C(=C\c2ccc(Br)cc2)C(=O)C2(C1)C(c1ccc(Br)cc1)CN(C)C21C(=O)Nc2ccccc21` (stereo not shown) [Compound 17l, Diethyl (E)-[5′′-(4-bromobenzylidene)-4′-(4-bromophenyl)-1′-methyl-2,4′′-dioxodispiro[indoline-3,2′-pyrrolidine-3′,3′′-piperidin]-1′′-yl]phosphonate] the IC50 ([1]; MTT, 72 h incubation, HCT116 colon, read-out: IC50, μM ± SEM HCT116) was 4.16 ± 0.129 µM, the IC50 ([1]; log of observed IC50 (μM), HCT116, read-out: Log(observed property) (converted)) was 4.16 µM and the “SI (selectivity index) HCT116” value ([1]; IC50 of RPE1 normal cell/IC50 of HCT116) was 1.9. The “1/(observed property)” value ([2]; 1/observed IC50 (μM), PaCa2) was 0.1626, the IC50 ([2]; Homo sapiens, PaCa-2, MTT, 72 h incubation, PaCa2 pancreatic, read-out: IC50, μM ± SEM PaCa2) was 6.15 ± 0.413 µM and the “SI (selectivity index) PaCa2” value ([2]; IC50 of RPE1 normal cell/IC50 of PaCa2) was 1.3. The IC50 ([3]; Homo sapiens, MTT, 72 h incubation, MCF7 breast, read-out: IC50, μM ± SEM MCF7) was 4.85 ± 0.082 µM, the “SI (selectivity index) MCF7” value ([3]; IC50 of RPE1 normal cell/IC50 of MCF7) was 1.6 and the IC50 ([4]; Homo sapiens, MTT, 72 h incubation, A549 lung, read-out: IC50, μM ± SEM A549) was 7.28 ± 0.316 µM. The “SI (selectivity index) A549” value ([4]; IC50 of RPE1 normal cell/IC50 of A549) was 1.1, the IC50 [5] was 7.85 ± 0.284 µM and the inhibition at 10 µM (VEGFR-2 [6]; HCT-116, HCT116) was 73.5%. The “VEGFR-2 pg/mL ± SEM HCT116” value (VEGFR-2 [6]; at 10 μM, control 317.80 ± 3.5) was 84.20 ± 1.5 pg/mL, the inhibition at 10 µM (VEGFR-2 [7]; PaCa-2, PaCa2) was 73.5% and the “VEGFR-2 pg/mL ± SEM PaCa2” value (VEGFR-2 [7]; at 10 μM, control 326.80 ± 1.9) was 86.45 ± 1.2 pg/mL. The inhibition at 10 µM (VEGFR-2 [8]; MCF7) was 71.6%, the “VEGFR-2 pg/mL ± SEM MCF7” value (VEGFR-2 [8]; at 10 μM, control 258.70 ± 2.3) was 73.50 ± 0.8 pg/mL and the inhibition at 10 µM (COX-1) was 61.6 ± 1.2%. For the same molecule, the inhibition at 10 µM (COX-2; 3 replicates, read-out: % Inhibition of COX-2 ± SEM) was 50.3 ± 2.3%, the “SI (selectivity index, COX-2/COX-1)” value (COX-2; at 10 μM) was 0.92 and the “TNF-α pg/mL (± SEM) HCT116” value (TNF-α [9]) was 27.34 ± 1.1 pg/mL. The “TNF-α % inhibition PaCa2” value (TNF-α [10]) was 66.3%, the “TNF-α pg/mL (± SEM) PaCa2” value (TNF-α [10]) was 37.63 ± 0.8 pg/mL and the “TNF-α % inhibition MCF7” value (TNF-α [11]) was 59.6%. The “TNF-α pg/mL (± SEM) MCF7” value (TNF-α [11]) was 33.67 ± 1.7 pg/mL.
For `CC(C)Cc1ccc(C(C)C(=O)O)cc1` (stereo not shown) [Ibuprofen, reference compound], the “TNF-α % inhibition HCT116” value (TNF-α [9]) was 22.2%, the “TNF-α pg/mL (± SEM) HCT116” value (TNF-α [9]) was 74.5 ± 1.1 pg/mL and the “TNF-α % inhibition PaCa2” value (TNF-α [10]) was 42.0%. For the same molecule, the “TNF-α pg/mL (± SEM) PaCa2” value (TNF-α [10]) was 64.8 ± 0.6 pg/mL, the “TNF-α % inhibition MCF7” value (TNF-α [11]) was 7.8% and the “TNF-α pg/mL (± SEM) MCF7” value (TNF-α [11]) was 76.8 ± 2.0 pg/mL.
In the case of `COc1ccc2c(c1)c(CC(=O)O)c(C)n2C(=O)c1ccc(Cl)cc1` [Indomethacin, reference compound], the “TNF-α % inhibition HCT116” value (TNF-α [9]) is reported as 42.8%, the “TNF-α pg/mL (± SEM) HCT116” value (TNF-α [9]) is reported as 54.8 ± 0.7 pg/mL and the “TNF-α % inhibition PaCa2” value (TNF-α [10]) is reported as 32.6%. The “TNF-α pg/mL (± SEM) PaCa2” value (TNF-α [10]) was 75.3 ± 2.1 pg/mL, the “TNF-α % inhibition MCF7” value (TNF-α [11]) was 22.9% and the “TNF-α pg/mL (± SEM) MCF7” value (TNF-α [11]) was 64.2 ± 1.6 pg/mL.
